{"source": "ChEMBL document CHEMBL1145948", "about": "(J Med Chem, 2003)", "key": {"Histamine H1 receptor [1]": {"target": "T1, Histamine H1 receptor (Homo sapiens, UniProt P35367)", "T1 sequence (P35367 whole entry)": "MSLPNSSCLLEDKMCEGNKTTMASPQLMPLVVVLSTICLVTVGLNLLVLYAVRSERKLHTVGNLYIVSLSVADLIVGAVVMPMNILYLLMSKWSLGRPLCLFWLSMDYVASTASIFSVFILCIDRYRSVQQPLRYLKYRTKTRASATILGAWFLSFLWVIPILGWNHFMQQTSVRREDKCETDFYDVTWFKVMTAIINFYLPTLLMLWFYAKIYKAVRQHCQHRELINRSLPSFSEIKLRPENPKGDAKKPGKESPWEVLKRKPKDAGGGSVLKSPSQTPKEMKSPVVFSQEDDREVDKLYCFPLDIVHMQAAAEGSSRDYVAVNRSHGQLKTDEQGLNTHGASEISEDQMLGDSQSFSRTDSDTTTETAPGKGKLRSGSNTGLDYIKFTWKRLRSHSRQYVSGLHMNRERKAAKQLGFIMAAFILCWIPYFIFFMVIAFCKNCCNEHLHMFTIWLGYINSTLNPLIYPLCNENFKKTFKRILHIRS", "assay": "Intrinsic activity; Tested up to 10 uM: no effects up to 1 uM"}, "Histamine H1 receptor [2]": {"target": "T1, Histamine H1 receptor"}, "Histamine H1 receptor [3]": {"target": "T1, Histamine H1 receptor", "remark": "listed apart in the source"}, "Histamine H1 receptor [4]": {"target": "T1, Histamine H1 receptor", "assay": "Intrinsic activity; Tested up to 10 uM: no effects up to 1 uM"}, "Histamine H1 receptor [5]": {"target": "T1, Histamine H1 receptor", "assay": "Intrinsic activity; Tested up to 100 uM: no effects up to 10 uM"}, "Histamine H1 receptor [6]": {"target": "T1, Histamine H1 receptor", "assay": "Intrinsic activity was determined; Tested up to 100 uM: no effects up to 10 uM"}}, "note": "Calls of active or inactive are those of the source. The rule behind the calls is not given here."}
{"smiles": "NCCCCCCCCCCc1ccccn1", "values": [{"measurement": "Alpha", "setting": "Histamine H1 receptor [1]", "result": "inactive"}]}
{"smiles": "NCCc1ccccn1", "values": [{"measurement": "IC50", "setting": "Histamine H1 receptor [2]", "result": 1260, "unit": "nM"}, {"measurement": "Alpha", "setting": "Histamine H1 receptor [3]", "result": 1.11}]}
{"smiles": "c1nc(CCCCCCCCCCCCN2CCCC2)c[nH]1", "values": [{"measurement": "IC50", "setting": "Histamine H1 receptor [2]", "result": 3980, "unit": "nM"}, {"measurement": "Alpha", "setting": "Histamine H1 receptor [3]", "result": -0.46}]}
{"smiles": "NCCCCCCCCc1c[nH]cn1", "values": [{"measurement": "Alpha", "setting": "Histamine H1 receptor [3]", "result": -0.54}]}
{"smiles": "NCCCCCCCCCCCCc1ccncc1", "values": [{"measurement": "IC50", "setting": "Histamine H1 receptor [2]", "result": 398, "unit": "nM"}, {"measurement": "Alpha", "setting": "Histamine H1 receptor [3]", "result": -0.67}]}
{"smiles": "NCCc1c[nH]c(CCC(c2ccccc2)C2CCCCC2)n1", "note": "(stereo not drawn)", "values": [{"measurement": "Alpha", "setting": "Histamine H1 receptor [4]", "result": "inactive"}]}
{"smiles": "NCCc1c[nH]c(CCC(c2ccccc2)c2ccccc2)n1", "values": [{"measurement": "Alpha", "setting": "Histamine H1 receptor [3]", "result": 0.69}]}
{"smiles": "c1ccc(C(CCc2nc(CCN3CCCC3)c[nH]2)c2ccccc2)cc1", "values": [{"measurement": "Alpha", "setting": "Histamine H1 receptor [5]", "result": "inactive"}]}
{"smiles": "NCCCCCCCCCCCCCCc1cnc[nH]1", "values": [{"measurement": "IC50", "setting": "Histamine H1 receptor [2]", "result": 2000, "unit": "nM"}]}
{"smiles": "NCCc1c[nH]c(-c2cccc(Cl)c2)n1", "values": [{"measurement": "EC50", "setting": "Histamine H1 receptor [2]", "result": 2000, "unit": "nM"}, {"measurement": "Alpha", "setting": "Histamine H1 receptor [3]", "result": 1.28}]}
{"smiles": "NCCCCCCCCCCCCCc1cnc[nH]1", "values": [{"measurement": "IC50", "setting": "Histamine H1 receptor [2]", "result": 1260, "unit": "nM"}]}
{"smiles": "NCCCCCCCCCCCCCc1c[nH]cn1", "values": [{"measurement": "Alpha", "setting": "Histamine H1 receptor [3]", "result": -0.84}]}
{"smiles": "NCCCCCCCCCCCCc1c[nH]cn1", "values": [{"measurement": "IC50", "setting": "Histamine H1 receptor [2]", "result": 1000, "unit": "nM"}, {"measurement": "Alpha", "setting": "Histamine H1 receptor [3]", "result": -0.62}]}
{"smiles": "c1nc(CCCCCCCCCCN2CCCC2)c[nH]1", "values": [{"measurement": "IC50", "setting": "Histamine H1 receptor [2]", "result": 398, "unit": "nM"}, {"measurement": "Alpha", "setting": "Histamine H1 receptor [3]", "result": -0.61}]}
{"smiles": "NCCCCCCCCCCCc1c[nH]cn1", "values": [{"measurement": "Alpha", "setting": "Histamine H1 receptor [3]", "result": -0.61}]}
{"smiles": "NCCCCCCCCCCc1ccncc1", "values": [{"measurement": "IC50", "setting": "Histamine H1 receptor [2]", "result": 2510, "unit": "nM"}, {"measurement": "Alpha", "setting": "Histamine H1 receptor [3]", "result": -1}]}
{"smiles": "NCCCCCCCCCc1c[nH]cn1", "values": [{"measurement": "IC50", "setting": "Histamine H1 receptor [2]", "result": 2000, "unit": "nM"}, {"measurement": "Alpha", "setting": "Histamine H1 receptor [3]", "result": -0.72}]}
{"smiles": "NCCCCCCCCCCCCc1cccnc1", "values": [{"measurement": "IC50", "setting": "Histamine H1 receptor [2]", "result": 1260, "unit": "nM"}, {"measurement": "Alpha", "setting": "Histamine H1 receptor [3]", "result": -0.78}]}
{"smiles": "CN(C)CCN(Cc1ccccc1)c1ccccn1", "note": "[TRIPELENNAMINE]", "values": [{"measurement": "IC50", "setting": "Histamine H1 receptor [2]", "result": 39.8, "unit": "nM"}, {"measurement": "Alpha", "setting": "Histamine H1 receptor [3]", "result": -0.84}]}
{"smiles": "NCCc1cnc(CCC(c2ccccc2)c2ccccc2)[nH]1", "values": [{"measurement": "IC50", "setting": "Histamine H1 receptor [2]", "result": 794, "unit": "nM"}]}
{"smiles": "NCCCCCCCCCCc1c[nH]cn1", "values": [{"measurement": "IC50", "setting": "Histamine H1 receptor [2]", "result": 501, "unit": "nM"}, {"measurement": "Alpha", "setting": "Histamine H1 receptor [3]", "result": -0.54}]}
{"smiles": "NCCc1cnc(-c2cccc(C(F)(F)F)c2)[nH]1", "values": [{"measurement": "EC50", "setting": "Histamine H1 receptor [2]", "result": 1000, "unit": "nM"}]}
{"smiles": "NCCCCCCCCc1cnc[nH]1", "values": [{"measurement": "IC50", "setting": "Histamine H1 receptor [2]", "result": 3160, "unit": "nM"}]}
{"smiles": "c1nc(CCCCCCCCN2CCCC2)c[nH]1", "values": [{"measurement": "Alpha", "setting": "Histamine H1 receptor [3]", "result": -0.99}]}
{"smiles": "NCCCCCCCCCc1ccccn1", "values": [{"measurement": "IC50", "setting": "Histamine H1 receptor [2]", "result": 7940, "unit": "nM"}, {"measurement": "Alpha", "setting": "Histamine H1 receptor [3]", "result": -0.92}]}
{"smiles": "NCCc1cscn1", "values": [{"measurement": "Alpha", "setting": "Histamine H1 receptor [6]", "result": "inactive"}]}
{"smiles": "NCCc1c[nH]c(-c2cccc(C(F)(F)F)c2)n1", "values": [{"measurement": "Alpha", "setting": "Histamine H1 receptor [3]", "result": 0.91}]}
{"smiles": "NCCCCCCCCCCCCc1ccccn1", "values": [{"measurement": "Alpha", "setting": "Histamine H1 receptor [1]", "result": "inactive"}]}
{"smiles": "NCCc1c[nH]c(CC(c2ccccc2)c2ccccc2)n1", "values": [{"measurement": "Alpha", "setting": "Histamine H1 receptor [5]", "result": "inactive"}]}
{"smiles": "NCCc1c[nH]c(CCCCC(c2ccccc2)c2ccccc2)n1", "values": [{"measurement": "Alpha", "setting": "Histamine H1 receptor [3]", "result": -0.09}]}
{"smiles": "NCCc1c[nH]c(CCCC(c2ccccc2)c2ccccc2)n1", "values": [{"measurement": "Alpha", "setting": "Histamine H1 receptor [3]", "result": 0.02}]}
{"smiles": "NCCc1c[nH]c(-c2ccc(Cl)c(Cl)c2)n1", "values": [{"measurement": "EC50", "setting": "Histamine H1 receptor [2]", "result": 50100, "unit": "nM"}, {"measurement": "Alpha", "setting": "Histamine H1 receptor [3]", "result": 0.5}]}
{"smiles": "c1ncc(CCCCCCCCN2CCCC2)[nH]1", "values": [{"measurement": "IC50", "setting": "Histamine H1 receptor [2]", "result": 631, "unit": "nM"}]}
{"smiles": "NCCCCCCCCCCCCCCc1c[nH]cn1", "values": [{"measurement": "Alpha", "setting": "Histamine H1 receptor [3]", "result": -0.9}]}
{"smiles": "NCCCCCCCCCCc1cccnc1", "values": [{"measurement": "IC50", "setting": "Histamine H1 receptor [2]", "result": 2510, "unit": "nM"}, {"measurement": "Alpha", "setting": "Histamine H1 receptor [3]", "result": -0.76}]}
{"smiles": "NCCc1c[nH]c(CCC(c2ccccc2)c2ccc(Br)cc2)n1", "note": "(stereo not drawn)", "values": [{"measurement": "Alpha", "setting": "Histamine H1 receptor [4]", "result": "inactive"}]}
{"smiles": "NCCCCCCCCCCCc1cnc[nH]1", "values": [{"measurement": "IC50", "setting": "Histamine H1 receptor [2]", "result": 251, "unit": "nM"}]}
{"smiles": "Cc1ccc(C(CCc2nc(CCN)c[nH]2)c2ccccc2)cc1", "note": "(stereo not drawn)", "values": [{"measurement": "Alpha", "setting": "Histamine H1 receptor [4]", "result": "inactive"}]}
{"smiles": "NCCc1c[nH]cn1", "values": [{"measurement": "Alpha", "setting": "Histamine H1 receptor [3]", "result": 1}]}
